Experimental data taken from PMC10349804, “Natural resveratrol analogs differentially target endometriotic cells into apoptosis pathways” (Scientific Reports, 2023).
Several values for one entry are separate records, joined by “and”; a condition that tells them apart may be missing. Identical values can stand only once.

Tests used:
[1] = tested on: endometrial stromal T HESC cells; assay: MTT reduction assay, cell viability; format: cell-based, human; conditions: for IC50: Homo sapiens; for IC50 / IC10: T HESC cells, 48-h incubation, MTT
Procedure: (§1) The effect of resveratrol and its natural analogs on the viability of endometriotic epithelial 12Z cells and endometrial stromal T HESC cells was assessed using the MTT assay. Table 1 presents the IC10 and IC50 values (the inhibitor concentration required for 10% and 50% reduction in […]) obtained after 48-h incubation with the tested compounds. […] The cytotoxicity of resveratrol and pterostilbene to 12Z cells was not markedly different. T HESC and 12Z cells varied in susceptibility to the treatment with stilbenes tested, as evidenced by the cytotoxic doses shown in Table 1. […] Similarly, resveratrol evoked much weaker cytotoxic effects in T HESC cells than in 12Z cells. Polydatin at concentrations up to 400 µM was not cytotoxic to the T HESC cells, while at a dose of 86.76 µM, it induced the first cytotoxic symptoms in 12Z cells. […] The increased susceptibility of endometriotic 12Z cells than endometrial T HESC cells to resveratrol and its natural analogs was consistent in both assays (Fig. 1).
(§2) The immortalized human endometriotic epithelial cells (12Z), derived from peritoneal endometriosis lesions, were obtained from Applied Biological Materials Inc. (Richmond, Canada). The 12Z cells were cultured in Dulbecco's Modified Eagle Medium/Nutrient Mixture F-12 (DMEM/F12), containing 10% fetal bovine serum (FBS) and 50 mg/L gentamycin. American Type Culture Collection (ATCC, Manassas, VA, USA) was the source for human endometrial stromal cells immortalized by telomerase (T HESC, CRL-4003). The cells were maintained routinely in phenol red-free DMEM/F12 supplemented with 10% charcoal/dextran treated FBS, 1% ITS + 1, and 50 mg/L gentamycin, at 37 °C and 5% CO2. Both cell lines were negative for mycoplasma contamination; mycoplasma-free cells were confirmed repeatedly during the study.
(§3) Cells were seeded at a density of 0.15 × 10^5 cells/cm^2 in 6-well plates. The 24-h cell cultures were treated with resveratrol and its derivatives for 48 h under standard culture conditions. Camptothecin was applied as a reference apoptosis inducer; its final concentrations were set to 5 µM and 50 µM.
(§4) Cell viability and metabolic activity were determined using the MTT colorimetric assay, according to the protocol described in previous studies. Based on the obtained data, the dose–response curves were plotted, and inhibitory concentrations (IC) were calculated. In addition, cell proliferation was measured using the alamarBlue™ Cell Viability Reagent (Invitrogen, Carlsbad, CA, USA) according to the manufacturer's protocol. Fluorescence was measured using a Tecan M200 Infinite microplate reader (Tecan Group Ltd., Männedorf, Switzerland).

[2] = tested on: endometriotic epithelial 12Z cells; assay: MTT reduction assay, cell viability; format: cell-based, human; conditions: for IC10 / IC50: 12Z cells, 48-h incubation; for IC50: Homo sapiens; for cytotoxicity in 12Z versus T HESC cells, comparing IC50 values: 48 h
Procedure: as §1, §2, §3, §4

[3] = tested on: caspases-3/7; assay: APO-One Homogenous Caspase-3/7 Assay in 12Z cells; format: cell-based, human
Procedure: Resveratrol evoked a dose-dependent caspase-3/7 activation in 12Z cells (F = 2467.29, p < 0.0001). […] It was consistent with the results of CASP3 gene expression activation. […] There was a 2.8-fold activation of caspase 3/7 enzymes following treatment with piceatannol at a 200 μM dose, which complies with the CASP3 mRNA expression level.
To quantitate the proteolytic activity of caspase 3 and 7, we performed an assay based on the proteolytic cleavage of the C-terminal side of the aspartate residue in the DEVD peptide substrate by caspase 3/7 and into the fluorescent rhodamine 110. Caspase 3/7 activity was determined using the APO-One Homogenous Caspase-3/7 Assay (Promega Corporation, Wisconsin, USA) following the manufacturer's instructions. The obtained data were normalized to cellular protein content. The total protein was quantified by BCA assay (Pierce® BCA Protein Assay Kit, Thermo Scientific Inc., USA) according to the manufacturer's protocol.

[4] = tested on: endometriotic 12Z cells; assay: TUNEL assay of DNA fragmentation, flow cytometry; format: cell-based, human; conditions: 48 h
Procedure: Cell death via apoptosis in 12Z cells after exposure to resveratrol and its natural derivatives was determined by detecting DNA fragmentation (Fig. 5). DNA degradation was correlated in a dose-dependent manner. […] Tunel-positive cell population in the 12Z cell culture treated with camptothecin was estimated at 32.5%, compared to 0.6% in the vehicle-treated control culture.
The detection of DNA fragmentation in 12Z cells was performed using the terminal deoxynucleotidyl-transferase-mediated dUTP nick end labeling (TUNEL) assay with In Situ Cell Death Detection Kit (Roche Diagnostics, Indianapolis, IN, USA). The test detects DNA breakage that is identified by terminal deoxynucleotidyl transferase. After treatment, the harvested cells were fixed in 4% paraformaldehyde and permeabilized in 0.1% Triton X-100. After washing in PBS, cells were subjected to TUNEL labeling with fluorescein-labeled dUTP and terminal deoxynucleotidyl transferase mixture. Cells were analyzed by flow cytometry using an Amnis™ FlowSight™ flow cytometer.

[5] = tested on: BAX, FAS, CASP3, CASP8, and CASP9 genes; assay: Real-time PCR, proapoptotic gene panel in 12Z cells; format: cell-based, human
Text: (§5) Figure 7 Effect of resveratrol and its analogs on the mRNA expression of BCL2, BCL2L1, BAX, FAS, CASP3, CASP8, and CASP9 genes in endometriotic 12Z cells, assessed by real-time PCR. Data were normalized against β-actin and expressed as relative mRNA expression (-fold of control). The values represent the means (n = 3) ± SD. Significant differences *p < 0.05; **p < 0.01; ***p < 0.001 compared to vehicle control.
The FAS overexpression depended on the concentration of stilbenes, reaching a relative expression up to tenfold higher in treated endometriotic cells. The role of proteases in resveratrol-, pterostilbene-, and piceatannol-induced apoptosis was also indicated by the upregulation of well-known initiator caspases of the mitochondrial and death receptor apoptotic pathways such as caspases 8, 9 and executioner caspase 3 (Fig. 7).
Gene expression analysis was carried out according to the previously described protocol. TRI reagent was applied for total RNA isolation, synthesis cDNA Transcriptor First-Strand kit (Roche Diagnostics GmbH, Mannheim, Germany) for first-strand cDNA synthesis, and SYBR® Select Master Mix (Life Technologies, Carlsbad, CA, USA) for real-time PCR. […] Relative mRNA expression was shown as fold change calculated using the 2^−ΔΔCt method compared with control cells.

[6] = tested on: endometriotic 12Z cells; assay: Annexin V/PI double staining, flow cytometry; format: cell-based, human; conditions: 200 µM, 48 h
Procedure: After treating endometriotic 12Z cells with stilbenes, the phosphatidylserine externalization was measured by Annexin V and PI double staining (Fig. 4A). Examples of the single-cell images from sub-populations: live cells (Annexin V/PI-double negative), early apoptotic cells (Annexin V-positive/PI-negative), late apoptotic cells (Annexin V/PI-double positive), necrotic cells (Annexin V-negative/PI-positive) are presented in Fig. 4B.
Figure 4 Flow cytometry analysis of endometriotic 12Z cells stained with PI and FITC-Annexin V. Cells were treated with resveratrol, pterostilbene, piceatannol, polydatin and their vehicle (0.5% ethanol) for 48 h. Camptothecin was used as a positive control. (A) Representative images of each distinct cellular subset. n = 4; scale bars = 20 μm. (B) Representative flow cytometry dot plots. (C) Summary of FITC-Annexin V and PI stained populations in 12Z cell cultures. […] The results are presented as means ± SD. *p < 0.05, **p < 0.01, ***p < 0.001 compared to vehicle control.
Apoptosis was determined by Annexin V and propidium iodide (PI) double staining with the FITC Annexin V Apoptosis Detection kit (BD Pharmingen, Heidelberg, Germany) by flow cytometry according to the manufacturer's instructions. […] The cells were analyzed with an Amnis™ FlowSight™ flow cytometer (Luminex Corporation, TX, USA). […]

[7] = tested on: endometriotic 12Z cells; assay: Cell cycle analysis by PI staining, flow cytometry; format: cell-based, human; conditions: 100 µM, 48 h
Procedure: To investigate whether resveratrol and its analogs have interfered with cell cycle progression in endometriotic 12Z cells, we analyzed the cell cycle distribution by flow cytometry. […] The largest subpopulation of apoptotic cells was found in the cell cultures treated with resveratrol and pterostilbene at the concentration of 100 µM (31.2 ± 8.0% and 33.1 ± 9.7%, respectively) and piceatannol at a concentration of 200 µM (45.1 ± 5. 6%).
Cell cycle progression was analyzed by flow cytometry using PI staining. After treatment, 12Z cells were collected, washed with PBS, and fixed in 70% ethanol. The cells were then washed, resuspended in PBS, and stained with 50 μg/ml PI in the presence of 100 μg/ml RNase A. Cell cycle distribution was analyzed using a FACSCanto flow cytometer (Becton Dickinson, San Jose, CA, USA). Data analysis was performed with the FACS Diva software (Becton Dickinson).

[8] = tested on: BAX gene; assay: Real-time PCR, BAX mRNA expression in 12Z cells; format: cell-based, human; conditions: fold of control, normalized against β-actin
Text: The effect of resveratrol and its natural analogs on the expression of pro- or antiapoptotic regulators, was examined by real-time PCR. […] BAX overexpression was also documented in 12Z cells exposed to resveratrol.
as §5
Gene expression analysis was carried out according to the previously described protocol. TRI reagent was applied for total RNA isolation, synthesis cDNA Transcriptor First-Strand kit (Roche Diagnostics GmbH, Mannheim, Germany) for first-strand cDNA synthesis, and SYBR® Select Master Mix (Life Technologies, Carlsbad, CA, USA) for real-time PCR. The levels of transcripts were normalized using β-actin as an internal control, which was previously applied in 12Z cells. Relative mRNA expression was shown as fold change calculated using the 2^−ΔΔCt method compared with control cells.

[9] = tested on: endometrial stromal St-T1b cells; set-up: method as in PMID 35361545; conditions: 100 µM, 48-h treatment; cited from earlier work
[10] = tested on: CASP3 gene; assay: Real-time PCR, caspase-3 mRNA expression in 12Z cells; format: cell-based, human; conditions: concentration not given
Text: as §5
We analyzed the activation of caspases at the molecular and cellular levels. […] Caspase 3 expression in pterostilbene-induced apoptosis in endometriotic cells was much weaker, even though this compound generated the most significant number of DNA strand breaks. […] It has now been recognized that in response to apoptotic stimuli, mitochondria can also release caspase-independent cell death effectors such as apoptosis-inducing factor (AIF) and endonuclease G. Following release and translocation to the nucleus, AIF becomes an active executioner of the cell death by the initiation of large-scale DNA fragmentation^37. It is essential to realize that apoptosis evolved complex death pathways, which overlap with each other. […]
Gene expression analysis was carried out according to the previously described protocol. […] Relative mRNA expression was shown as fold change calculated using the 2^−ΔΔCt method compared with control cells.

[11] = tested on: epithelial 12Z cells; set-up: method as in PMID 35361545; conditions: 100 µM, 48-h treatment; cited from earlier work
[12] = tested on: endometrial stromal cells derived from patients with endometriosis; set-up: method as in PMID 33083332, PMID 26782781; conditions: cited from earlier work

Row | SMILES | IC50 [1] [µM] | IC10 [1] | IC10 [2] | IC50 [2] [µM] | caspase-3/7 activity increase ([3]; 200 µM) | DNA strand breaks (TUNEL-positive cells) ([4]; 100 µM) | DNA strand breaks (TUNEL-positive cells) ([4]; concentration not given) [%] | subpopulation of apoptotic cells (lower DNA content, subG1) [7] [%] | cytotoxicity in 12Z versus T HESC cells, comparing IC50 values [2] | caspase-3/7 activity increase ([3]; 100 µM) | other results
1 | Oc1cc(O)cc(C=Cc2ccc(O)c(O)c2)c1 [Piceatannol, 3,3′,4,5′-tetrahydroxystilbene] | 364 ± 17 | 222.68 ± 14.49 ^# µM | 167.50 ± 11.36 µM | 224 ± 6.47 | 2.8 fold | 49.6% and ~50% | – | – | – | – | –
2 | OC[C@H]1O[C@@H](Oc2cc(O)cc(/C=C/c3ccc(O)cc3)c2)[C@H](O)[C@@H](O)[C@@H]1O [Polydatin, 3,4′,5-trihydroxystilbene-3-β-D-glucoside] | > 400 | > 400 µM | 86.76 µM and 86.76 ± 10.01 µM | 243 ± 22.5 | – | – | 1.08 | – | – | – | mRNA transcripts of BAX, FAS, CASP3, CASP8, and CASP9 genes [5]: did not significantly increase; cytotoxicity to T HESC cells ([1]; concentrations up to 400 µM): not cytotoxic; caspase 3/7 activity change ([3]; concentration not given): not significantly changed; apoptosis stage induced (Annexin V/PI) ([6]; 50 µM, 100 µM): increased population of early apoptosis cells without induction of late apoptosis
3 | COc1cc(C=Cc2ccc(O)cc2)cc(OC)c1 [Pterostilbene, 3,5-dimethoxy-4′-hydroxystilbene] | 145 ± 7.71 | 113.79 ± 5.11 ^## µM | 29.34 ± 4.46 µM | 73.9 ± 6 | inhibited their activity | – | – | 33.1 ± 9.7 | almost twofold lower | modestly activated | BAX mRNA expression increase ([8]; 100 µM): approximately 16 fold; DNA strand breaks (TUNEL-positive cells) ([4]; 200 µM): 62.6%; treated cells classified as apoptotic cells [6]: approximately 94%
4 | Oc1ccc(/C=C/c2cc(O)cc(O)c2)cc1 [Resveratrol] | 251 ± 1.58 | 160.35 ± 7.05 µM | 8.99 ± 4.29 µM | 49.3 ± 11.4 | – | 42.8% | – | 31.2 ± 8.0 | fivefold higher | 10.3 fold | reduction of cell viability [9]: 49.2%; BAX mRNA expression increase ([8]; 50 µM): approximately sevenfold; caspase-3 mRNA expression upregulation [10]: 7.3 fold; reduction of cell viability [11]: 45.4%; endometriotic stromal cell viability (reduced to) ([12]; 200 μM): approximately 50%; influence on viability of endometrial stromal cells ([12]; concentrations up to 100 μM, 48-h treatment): did not influence the viability
5 | CC[C@@]1(O)C(=O)OCc2c1cc1n(c2=O)Cc2cc3ccccc3nc2-1 [camptothecin, reference compound] | – | – | – | – | – | – | 32.5 | – | – | – | –
